These results are taken from patent publication US20250154193A1, “STEROID COMPOUND, AND PREPARATION METHOD THEREFOR AND APPLICATION THEREOF” (CHOLESGEN (SHANGHAI) CO., LTD., priority 2022, published 2025).

In one data set the test system is SREBP pathway. Briefly: SREBP luciferase reporter gene system (SRE-luciferase assay) in Huh-7/SRE-Luc cells. As to conditions: Homo sapiens, sterol-deficient medium, compound treatment 16 hours, luciferase/GFP ratio. The format is cell-based. The method, boiled down: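 Huh-7 cells stably carrying an LDLR promoter (SRE)-luciferase and GFP were treated for 16 hours in sterol-deficient medium (5% lipoprotein-deficient serum, 2 μM lovastatin, 10 μM mevalonate) at […] compound, with DMSO vehicle. IC50 derived from the ratio of luciferase activity to GFP fluorescence.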
A general note: In a reporter assay the amount or activity of a reporter protein is the signal.

Data set [1] is described as follows: Liver microsomal metabolic stability assay. The format is in vitro ADME. To be noted: rat liver microsomes, NADPH, 37° C., 0-60 minutes; read-out: Rat microsomal metabolic half-life (t1/2). On the procedure: PBS solution (100 mM), MgCl2 solution (100 mM), and NADPH solution (20 mM) were prepared respectively. Compound and testosterone (positive control) stock solutions were then prepared with dimethyl sulfoxide (DMSO), diluted to 100 µM with methanol for sample incubation, and stored at −10 to −30° C. 12.5 μL of rat liver microsomes (purchased from XenoTech, Cat. No.: R1000, Lot No.: 1310030, specification: 20 mg/mL), 432.5 µL of PBS solution (100 mM), 25 µL of NADPH solution (20 mM), and 25 μL of MgCl2 solution (100 mM) were added to a 96-well plate, mixed well, and pre-incubated at 37° C. for 5 minutes. 5 µL of substrate (test compound) solution was added to start the reaction. At specified time points of 0, 5, 15, 30, 45, and 60 minutes (0 and 60 minutes for the negative control group), 50 µL of the incubated samples were added to a stop plate containing 100 µL of ice-cold stop solution, vortexed for 1 minute to inactivate the reaction, and stored at −60 to −90° C. for subsequent analysis. Sample analysis of the test compound and the control compound testosterone was performed using LC-MS/MS method. Chromatographic peaks were integrated, calculated, and processed using Analyst software. Semi-quantitative analysis was performed for both the test compound and the control compound testosterone by calculating peak area ratios.
On the technique in general: Liver microsomes are a subcellular fraction often used to study metabolism.

The test system of the next data set is liver organoids. Briefly: Real-time quantitative PCR of lipogenesis- and fibrosis-related genes in fatty liver organoids. The format is cell-based, mice. To be noted: mouse fatty liver organoids, 1 and 3 μM, 72 hours, qPCR. The source says:
Liver samples or liver organoid samples were homogenized in TRI Reagent (T9424, Sigma), and total RNA was extracted according to the manufacturer's instructions. Equal amounts of RNA template were used to synthesize cDNA with oligo dT primers and MLV reverse transcriptase (Promega). Quantitative data for genes were collected using the Bio-Rad CFX96 real-time PCR system, and the relative amount of gene mRNA was quantified using the comparative CT method.
C57BL/6N mice were fed with fatty liver-inducing diet (TrophicDiet, TP2630052A, containing 10.2% kcal protein, 37.3% kcal carbohydrate, and 52.6% kcal fat) and fructose-containing drinking water (23.1 g of fructose and 18.9 g of dextrose were dissolved in 1 L of water, then filtered and sterilized) for a total of 16 weeks starting at 12 weeks of age to generate a fatty liver model. To generate fatty liver organoids, liver tissues from mice with fatty liver were minced and digested in digestion buffer at 37° C. for 30 to 60 minutes. The digestion buffer included DMEM/F-12 (Cytiva, SH30023.01), 2.5 mg/mL collagenase D (Roche, COLLD-RO), and 0.1 mg/mL DNaseI (Sigma-Aldrich, DN25). […]
To distinguish whether the inhibitory effect of 25-hydroxylanosterol is directly based on its effect on the liver or a systemic effect, we utilized 3D liver organoids as an in vitro model for the study of fatty liver to analyze the effect of 25-hydroxylanosterol on lipogenesis and fibrosis marker expression in liver organoids. […] RNA from the organoids was collected and analyzed for the differential expression of lipogenesis-related genes (Hmgcs, Hmgcr, SCD1, and FASN) and fibrosis markers (αSMA and Colla1) using fluorescent real-time quantitative PCR.
In FIGS. 35 and 36, data are represented as mean±standard deviation. P values were calculated using one-way ANOVA; ns indicates no statistical difference; * indicates P<0.05; ** indicates P<0.01; *** indicates P<0.001. In FIGS. 47 and 53, quantitative analysis was performed using ImageJ software. […] P values were calculated using one-way ANOVA; * indicates P<0.05; ** indicates P<0.01; *** indicates P<0.001.

Broadly, the IC50 is the concentration that gives 50% inhibition. Consider `C[C@H](CCCC(O)c1c(F)cccc1F)[C@H]1CC[C@H]2[C@H]3[C@H](CC[C@]12C)[C@@]1(C)CC[C@H](O)[C@H](O)[C@@H]1CC3(F)F` (stereo partly drawn) [compound 300, (1R,3aS,3bS,5aR,6R,7S,9aR,9bS,11aR)-1-[(2R)-6-(2,6-difluorophenyl)-6-hydroxyhexan-2-yl]-4,4-difluoro-9a,11a-dimethylhexadecahydro-1H-cyclopenta[1,2-α]phenanthrene-6,7-diol], for which the half-maximal inhibitory concentration (IC50) in the data set on SREBP pathway is 0.036 µM. Also, the half-life at 1 µM in data set [1] was 0.402 h.
For `C[C@H](CCCC(C)(C)O)[C@H]1CC[C@H]2[C@H]3[C@H](CC[C@]12C)[C@@]1(C)CC[C@H](O)C(=O)[C@@H]1CC3(F)F` [compound 302, (1R,3aS,3bS,5aR,7S,9aR,9bS,11aR)-4,4-difluoro-7-hydroxy-1-[(2R)-6-hydroxy-6-methylheptan-2-yl]-9a,11a-dimethylhexadecahydro-1H-cyclopenta[1,2-α]phenanthren-6-one], in that order: 0.035 µM and 0.979 h.
Regarding `COc1cc(F)ccc1C(O)CCC[C@@H](C)[C@H]1CC[C@H]2[C@@H]3CC[C@H]4[C@@H](O)[C@@H](O)CC[C@]4(C)[C@H]3CC[C@]12C` (stereo partly drawn) [compound 306, 24-[(4-fluoro-2-methoxyphenyl)(hydroxy)methyl]-5α-cholan-3β,4β-diol], the IC50 with SREBP pathway worked out at 0.08 µM. For the same compound, the half-life at 1 µM in data set [1] is 1.74 h.
As to `C[C@H](CCCC(O)c1ccccc1OC(F)(F)F)[C@H]1CC[C@H]2[C@@H]3CC[C@H]4[C@@H](O)[C@@H](O)CC[C@]4(C)[C@H]3CC[C@]12C` (stereo partly drawn) [compound 317, 24-(hydroxy{2-[(trifluoromethyl)oxy]phenyl}methyl)-5α-cholan-3β,4β-diol], in the data set on SREBP pathway, the 50% inhibitory concentration (IC50) stood at 0.14 µM. The half-life at 1 µM in data set [1] was 2.28 h.
Take `CC[C@H]1[C@@H](O)[C@@H]2[C@H](CC[C@]3(C)[C@@H]([C@H](C)CCC(=O)O)CC[C@@H]23)[C@@]2(C)CC[C@@H](O)C[C@@H]12` [obeticholic acid, Obeticholic acid, reference compound]: in the data set with liver organoids, the “expression levels of lipogenesis-related genes (Hmgcs, Hmgcr, SCD1, and FASN)” value is “failed to inhibit”.
